Read-outs that look alike come from different tables or passages of the source.
Experiments:
[1] = system: Abeta oligomer-induced membrane trafficking deficits in primary hippocampal neurons; test: Membrane Trafficking/Exocytosis (MTT) assay, Abeta oligomer effect on neurons; format: cell-based, rat; conditions: membrane trafficking, read-out: EC50 Abeta;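 note: compound potency for inhibiting the Abeta oligomer effect on exocytosis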
Procedure: Compounds according to any embodiment described herein, were tested for their ability to inhibit an amyloid beta effect on the cells. The compounds generally were able to inhibit the amyloid beta effect as measured by a membrane trafficking/exocytosis assay (MTT assay). The rationale for this assay was as follows:
The present exocytosis assay was adapted for use with mature primary neuronal cultures grown for 3 weeks in vitro. See WO 2011/106785, which is incorporated herein by reference in its entirety. Abeta oligomers cause a dose-dependent decrease in the amount of intracellular vesicles (puncta) filled with reduced purple formazan as measured via image processing using a Cellomics VTI automated microscopy system. […] Increasing the amount of Abeta oligomers eventually results in overt toxicity. Thus, the concentration of neuroactive Abeta oligomers used in the assay is much lower than that causing cell death. […] When configured in this manner, the assay is able to detect compounds that inhibit nonlethal effects of Abeta oligomer whether these compounds act via disruption of oligomers, inhibition of oligomer binding to neurons, or counteraction of signal transduction mechanisms of action initiated by oligomer binding.
Primary hippocampal neurons from E18 Sprague-Dawley rat embryos were plated at optimized concentrations in 384 well plates in NB media (Invitrogen). Neurons were maintained in cultures for 3 weeks, with twice weekly feeding of NB media with N2 supplement (Invitrogen).
A test compound was added to cells at concentrations ranging from 100 uM to 0.001 nM followed by addition of vehicle or Abeta oligomer preparations (3 μM total Abeta protein concentration), and incubated for 1 to 24 hr at 37° C. in 5% CO2. MTT reagent (3-(4,5-dimethylthizaol-2yl)-2,5diphenyl tetrazolium bromide) (Roche Molecular Biochemicals) was reconstituted in phosphate buffered saline to 5 mg/mL. 10 μL of MTT labeling reagent is added to each well and incubated at 37° C. for 1 h, then imaged. Exocytosis was assessed by automated microscopy and image processing to quantify the amount of endocytosed and exocytosed formazan.
Each assay plate was formatted so that compounds are tested with and without Abeta oligomer on each plate. This design eliminates toxic or metabolically active compounds early on in the screening cascade (at the level of the primary screen). Reduced formazan was first visible in intracellular vesicles. Eventual formazan exocytosis was accelerated via Abeta oligomers.
Human amyloid peptide 1-42 was obtained from a number of commercial vendors such as California Peptide, with lot-choice contingent upon quality control analysis. Quality controls of oligomer preparations consist of Westerns to determine oligomer size ranges and relative concentrations, and the MTT assay to confirm exocytosis acceleration without toxicity. Toxicity was monitored in each image-based assay via quantification of nuclear morphology visualized with the DNA binding blue dye DAPI (Invitrogen). Nuclei that are fragmented are considered to be in late stage apoptosis (Majno and Joris '95) and the test would be rejected. Peptide lots producing unusual peptide size ranges or significant toxicity at a standard 1.5 μM concentration on neurons would also be rejected.
Data handling and analysis were accomplished by Cellomics VTI image analysis software and STORE automated database software. Because of the low dynamic range and neuronal well-to-well variability after three weeks in culture, statistical comparisons are made via pairwise Tukey-Kramer analysis to determine the significance of the separation between compound+Abeta oligomers from Abeta alone, and between compound alone from vehicle. The ability of mature primary neurons to more closely approximate the electrophysiologically mediated signal transduction network of the adult brain justifies this screening strategy. […]

log P = format: physicochemical
Source text: The term “log P” refers to the partition coefficient of a compound. The partition coefficient is the ratio of concentrations of un-ionized compound in each of two solution phases, for example, octanol and water. To measure the partition coefficient of ionizable solute compounds, the pH of the aqueous phase is adjusted such that the predominant form of the compound is un-ionized. The logarithm of the ratio of concentrations of the un-ionized solute compound in the solvents is called log P. The log P is a measure of lipophilicity. For example, log Poct/wat=log([solute]octanol/[solute]un-ionized,water).
Combined Results for particular compounds described herein, with respect to log P, membrane trafficking (uM), sigma-2 receptor affinity, sigma-1 receptor affinity microsomal stability in mouse liver microsomes (MLM) (t1/2, min), t1/2 normalized to CT)10914 and in vitro toxicity potassium channel hERG (IC50, nM) are provided in Table 1: […]

potassium channel hERG = potassium channel hERG (Homo sapiens (Human), UniProt Q12809); test: In vitro testing for hERG inhibition; format: biochemical; conditions: in vitro toxicity potassium channel hERG
Procedure: In vitro testing for hERG inhibition was performed in a standard assay (See: Haverkamp W, Breithardt G, Carnm A J, Janse M J, Rosen M R, Antzelevitch C, Escande D, Franz M, Malik M, Moss A and Shah R. (2000) Eur Heat J 21 (15); 1216-31).

potassium channel hERG, sequence (Q12809 whole entry): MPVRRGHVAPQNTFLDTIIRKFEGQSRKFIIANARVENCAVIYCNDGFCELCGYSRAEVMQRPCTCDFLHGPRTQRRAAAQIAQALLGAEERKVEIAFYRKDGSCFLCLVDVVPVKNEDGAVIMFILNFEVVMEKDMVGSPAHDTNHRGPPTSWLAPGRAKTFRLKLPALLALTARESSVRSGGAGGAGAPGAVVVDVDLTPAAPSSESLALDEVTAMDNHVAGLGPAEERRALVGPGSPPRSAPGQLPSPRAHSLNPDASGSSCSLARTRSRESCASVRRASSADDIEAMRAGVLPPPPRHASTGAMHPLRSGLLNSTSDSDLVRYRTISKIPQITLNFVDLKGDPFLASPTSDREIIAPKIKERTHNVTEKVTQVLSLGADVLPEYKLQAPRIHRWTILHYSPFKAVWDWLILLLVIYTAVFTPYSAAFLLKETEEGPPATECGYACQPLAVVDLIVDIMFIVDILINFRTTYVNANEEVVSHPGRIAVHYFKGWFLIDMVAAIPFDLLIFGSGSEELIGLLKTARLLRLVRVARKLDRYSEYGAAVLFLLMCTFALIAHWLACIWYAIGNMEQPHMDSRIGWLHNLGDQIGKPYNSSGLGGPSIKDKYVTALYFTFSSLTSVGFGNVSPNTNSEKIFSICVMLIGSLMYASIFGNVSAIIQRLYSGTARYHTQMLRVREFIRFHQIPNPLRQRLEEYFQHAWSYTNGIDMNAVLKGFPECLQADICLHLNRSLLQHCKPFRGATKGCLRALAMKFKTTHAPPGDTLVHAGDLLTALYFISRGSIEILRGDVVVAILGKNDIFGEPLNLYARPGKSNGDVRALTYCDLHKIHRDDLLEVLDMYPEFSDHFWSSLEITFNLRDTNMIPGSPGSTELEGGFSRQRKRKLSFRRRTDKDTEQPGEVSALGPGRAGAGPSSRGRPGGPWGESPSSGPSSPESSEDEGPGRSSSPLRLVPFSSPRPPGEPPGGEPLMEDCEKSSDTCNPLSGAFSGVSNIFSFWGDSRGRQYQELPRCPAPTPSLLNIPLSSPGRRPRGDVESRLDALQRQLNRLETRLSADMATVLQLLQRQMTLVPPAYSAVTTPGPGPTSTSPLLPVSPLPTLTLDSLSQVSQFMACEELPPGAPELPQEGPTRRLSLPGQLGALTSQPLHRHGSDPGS

Row | Compound | EC50 [1] [µM] | log P (log P) | IC50 (potassium channel hERG) [µM] | EC50 ([1]; Rattus norvegicus, Hippocampal neuron) [µM] | logP (log P; octanol/water)
1 | CC(C)=CC(CC(C)(C)c1ccc(C(F)(F)F)cc1)N1CCC(Oc2ccccc2)CC1 (stereo not drawn) [Compound 128] | 20 | 7.19 |  |  | 
2 | CC(C)=CC(CC(C)(C)c1ccc(F)cc1)N1CCC2(CC1)OCc1ccccc12 (stereo not drawn) [Compound 185] |  | 6.16 | 3 |  | 
3 | CC(C)=CC(CC(C)(C)c1ccc(C(F)(F)F)cc1)N1CCN(C(=O)OC(C)(C)C)CC1 (stereo not drawn) [Compound 200] |  | 6.28 | 83 |  | 
4 | CC(C)=C[C@@H](CC(C)(C)c1ccc(Cl)cc1)N1CCC[C@@H]1CO [Compound 239] |  | 5.04 | 4.6 |  | 
5 | COC[C@H]1CCCN1[C@@H](C)CC(C)(C)c1ccc(C(F)(F)F)cc1 [Compound 254] |  | 4.95 | 5 |  | 
6 | COCCCC1CCN(C(C=C(C)C)CC(C)(C)c2ccc(F)cc2)CC1 (stereo not drawn) [Compound 139] | 20 | 6.03 |  |  | 
7 | COC[C@H]1CCCN1C(C)CC(C)(C)c1ccc(Cl)cc1 (stereo partly drawn) [Compound 253] | 0.25 | 4.67 |  |  | 
8 | CC(C)=CC(CC(C)(C)c1ccc(F)cc1)N1CCC(N2CCCC2)CC1 (stereo not drawn) [Compound 125] | 0.25 | 5.23 |  |  | 
9 | CC(C)=CC(CC(C)(C)c1ccc(F)cc1)N1CCC(N2CCCCC2)CC1 (stereo not drawn) [Compound 133] | 2.2 | 5.68 |  |  | 
10 | CC(C)=CC(CC(C)(C)c1ccc(Cl)cc1)N1CCN(S(C)(=O)=O)CC1 (stereo not drawn) [Compound 156] | 0.34 | 3.83 |  |  | 
11 | CC1(O)CCN(CCC(C)(C)c2ccc(Cl)cc2)CC1 [Compound 192] |  | 3.44 | 19 |  | 
12 | COCCC1(O)CCN(C(C=C(C)C)CC(C)(C)c2ccc(F)cc2)CC1 (stereo not drawn) [Compound 218] |  | 4.05 | 13 |  | 
13 | CC(C)=C[C@H](CC(C)(C)c1ccc(F)cc1)N1CCC[C@@H]1CO [Compound 242] |  | 4.57 | 14 |  | 
14 | COC1CCN(C(C)CC(C)(C)c2ccc(Cl)cc2)CC1 (stereo not drawn) [Compound 199] |  | 4.22 | 1.2 |  | 
15 | CC(C)=CC(CC(C)(C)c1ccc(F)cc1)N1CCC(CCOC(C)C)CC1 (stereo not drawn) [Compound 159] | 10 | 6.36 |  |  | 
16 | CCCCC1(OC(=O)NC(C)C)CCN(C(C=C(C)C)CC(C)(C)c2ccc(F)cc2)CC1 (stereo not drawn) [Compound 226] | 1.25 | 6.91 |  |  | 
17 | CC(C)=CC(CC(C)(C)c1ccc(C(F)(F)F)cc1)N1CCN(S(C)(=O)=O)CC1 (stereo not drawn) [Compound 161] | 0.27 | 4.1 |  |  | 
18 | CC(C)=CC(CCc1ccc(F)cc1)N1CCOCC1 (stereo not drawn) [Compound 91] | 20 | 3.99 |  |  | 
19 | COc1ccc(C(C)(C)CC(C=C(C)C)N2CCC(C(C)C)CC2)cc1 (stereo not drawn) [Compound 86] | 0.22 | 6.37 |  |  | 
20 | COC1CCN(C(C=C(C)C)CC(C)(C)c2ccc(Cl)cc2)CC1 (stereo not drawn) [Compound 142] | 20 | 5.22 |  |  | 
21 | CC(C)=CC(CC(C)(C)c1ccc(F)cc1)N1CCN(C(=O)c2ccccc2)CC1 (stereo not drawn) [Compound 153] | 0.5 | 5.73 |  |  | 
22 | CC(C)=CC(CC(C)(C)c1ccc(N2CCOCC2)cc1)N1CCC(C2CCOCC2)CC1 (stereo not drawn) [Compound 149] | 20 | 5.59 |  |  | 
23 | CC(C)=CC(CC(C)(C)c1ccc(F)cc1)N1CCN(C(=O)C2CC2)CC1 (stereo not drawn) [Compound 151] | 20 | 4.65 |  |  | 
24 | CC(C)=CC(CC(C)(C)c1ccc(Cl)cc1)N1CCC(N2CCCC2)CC1 (stereo not drawn) [Compound 135] | 20 | 5.69 |  |  | 

Row | Compound | EC50 [1] [µM] | log P (log P) | IC50 (potassium channel hERG) [µM] | EC50 ([1]; Rattus norvegicus, Hippocampal neuron) [µM] | logP (log P; octanol/water)
25 | COc1ccc(C(C)(C)CC(NCC2CCOCC2)c2ccccc2)cc1 (stereo not drawn) [Compound 115] | 20 | 4.9 |  |  | 
26 | CC(C)=CC(CC(C)(C)c1ccc(F)cc1)N1CCC(F)CC1 (stereo not drawn) [Compound 134] | 20 | 5.01 |  |  | 
27 | COCCOCCC1CCN(C(C=C(C)C)CC(C)(C)c2ccc(F)cc2)CC1 (stereo not drawn) [Compound 163] | 15 | 5.54 |  |  | 
28 | CC(C)=CC(CC(C)(C)c1ccc(Cl)cc1)N1CCC(N2CCOCC2)CC1 (stereo not drawn) [Compound 138] | 0.45 | 5.07 |  |  | 
29 | CC(C)=CC(CC(C)(C)c1ccc(F)cc1)N1CCC(Oc2ccccc2)CC1 (stereo not drawn) [Compound 124] | 0.2 | 6.45 |  |  | 
30 | CC(C)=C[C@@H](CC(C)(C)c1ccc(C(F)(F)F)cc1)N1CCC(C2CCOCC2)CC1 [Example 262] |  |  |  | 1.85 | 6.58
31 | CC(C)=CC(CC(C)(C)c1ccc(Cl)cc1)N1CCC(C(F)(F)F)CC1 (stereo not drawn) [Compound 123] | 0.3 | 6.67 |  |  | 
32 | CC(C)=CC(CC(C)(C)c1ccc(Cl)cc1)N1CCC(N2CCCCC2)CC1 (stereo not drawn) [Compound 146] | 0.025 | 6.14 |  |  | 
33 | COC1CCN(C(C=C(C)C)CC(C)(C)c2ccc(F)cc2)CC1 (stereo not drawn) [Compound 145] | 20 | 4.76 |  |  | 
34 | CC(C)=CC(CC(C)(C)c1ccc(Cl)cc1)N1CCC(CCOC(C)C)CC1 (stereo not drawn) [Compound 160] | 15 | 6.82 |  |  | 
35 | CC(C)=CC(CC(C)(C)c1ccc(C(F)(F)F)cc1)N1CCC(N2CCOCC2)CC1 (stereo not drawn) [Compound 137] | 0.15 | 5.34 |  |  | 
36 | CC(C)=CC(CCc1ccc(F)cc1)N1CCCCC1 (stereo not drawn) [Compound 92] | 20 | 5.06 |  |  | 
37 | CC(C)=CC(CC(C)(C)c1ccc(Cl)cc1)N1CCC(Oc2ccccc2)CC1 (stereo not drawn) [Compound 132] | 20 | 6.91 |  |  | 
38 | CC(C)=CC(CC(C)(C)c1ccc(N2CCOCC2)cc1)N1CCC(C(F)(F)F)CC1 (stereo not drawn) [Compound 143] | 20 | 5.96 |  |  | 
39 | COc1cc(CCC(C)(C)N2Cc3cccc(C(=O)N4CCN(C(=O)Oc5ccccc5)CC4)c3C2)ccc1O [Compound 256] | 15 | 5.01 |  |  | 
40 | COCCOCCC1CCN(C(C=C(C)C)CC(C)(C)c2ccc(Cl)cc2)CC1 (stereo not drawn) [Compound 162] | 15 | 6 |  |  | 
41 | CC(C)=CC(CC(C)(C)c1ccc(Cl)cc1)N1CCC(C(C)C)CC1 (stereo not drawn) [Compound 87] | 20 | 7.13 |  |  | 
42 | CC(C)=C[C@H](CC(C)(C)c1ccc(C(F)(F)F)cc1)N1CCC(C2CCOCC2)CC1 [Compound 261] | 0.73 | 6.58 |  |  | 
43 | CC(C)=CC(CC(C)(C)c1ccc(C(F)(F)F)cc1)N1CCC(F)CC1 (stereo not drawn) [Compound 141] | 1.6 | 5.74 |  |  | 
44 | CC(C)=CC(CC(C)(C)c1ccc(F)cc1)N1CCC(C)(C)CC1 (stereo not drawn) [Compound 131] | 20 | 6.24 |  |  | 
45 | CC(C)=CC(CC(C)(C)c1ccc(Cl)cc1)N1CCN(C(=O)C2CC2)CC1 (stereo not drawn) [Compound 152] | 0.26 | 5.11 |  |  | 
46 | CC(C)=CC(CC(C)(C)c1ccc(N2CCOCC2)cc1)N1CCC(CCO)CC1 (stereo not drawn) [Compound 144] | 20 | 4.69 |  |  | 
47 | CC(C)=CC(CC(C)(C)c1ccc(C(F)(F)F)cc1)N1CCC(N2CCCC2)CC1 (stereo not drawn) [Compound 130] | 0.3 | 5.97 |  |  | 
48 | COCCCC1CCN([C@@H](C=C(C)C)CC(C)(C)c2ccc(Cl)cc2)CC1 [Compound 292] | 1.6 | 6.49 |  |  | 

From US11214540B2, “Compositions for treating neurodegenerative diseases” (COGNITION THERAPEUTICS, INC., priority 2017, dated 2022)
